# Data: patent US20220087275A1, “MAGNESIUM ION AS ANTIBACTERIAL AGENT” (THE STATE OF ISRAEL, MINISTRY OF AGRICULTURE & RURAL …, priority 2016, published 2022)
# Read-outs that look alike come from different tables or passages of the source.
# How the values were obtained:
# [1] = tested on: Bacillus subtilis wild strain NCIB3610; assay: Pellicle (biofilm) formation in LBGM broth; assay type: cell-based; settings: for biofilm formation by B. subtilis: NaCl or CaCl2 added to LBGM, results not shown; for pellicle formation by B. subtilis: LBGM medium, 30° C., 24 h
# Method: Plates were incubated at 30° C. for 24 h.
# epsA-O operon = assay: β-Galactosidase transcriptional fusion, matrix gene expression (eps); assay type: cell-based, Bacillus subtilis; settings: for expression of the eps operon: similar concentrations of NaCl or CaCl2
# Excerpt: (§1) To analyze the effect of magnesium ions on matrix gene expression a transcriptional fusions of the promoters for eps and tapA to the gene encoding β galactosidase were used. Samples of generated pellicles as described above were collected and resuspended in phosphate-buffered saline (PBS) buffer. Typical long bundled chains of cells in the biofilm colony were disrupted using mild sonication as described previously. Optical density of the cell samples was normalized using OD600. One milliliter of cell suspensions was collected and assayed for (3-Galactosidase activity as described previously.
# (§2) The effect of Mg^2+ ions on matrix gene expression was examined by using transcriptional fusions of the promoters for epsA-O and tapA to the gene encoding β galactosidase.
# tapA operon [2] = assay: β-Galactosidase transcriptional fusion, matrix gene expression (tapA); assay type: cell-based, Bacillus subtilis; settings: for expression of the tapA operon: similar concentrations of NaCl or CaCl2
# Excerpt: as §1, §2
# [3] = tested on: Bacillus subtilis wild strain NCIB3610; settings: high concentrations of Mg ions; solid LBGM, 30° C., 72 h
# Method: For routine growth, all strains were propagated in Lysogeny broth (LB; 10 g of tryptone, 5 g of yeast extract and 5 g of NaCl per liter) or on solid LB medium supplemented with 1.5% agar. For biofilm generation, bacteria were grown to stationary phase in LB medium at 37° C. in shaking culture to around 1×10^8 CFU per ml. Biofilms were generated at 30° C. in the biofilm promoting medium LBGM (LB+1% (v/v) glycerol+0.1 mM MnSO4). […] For colony type biofilm formation, 3 μl of the cells (around 3×10^5 CFU) was spotted onto LBGM medium solidified with 1.5% agar as described previously. Plates were incubated at 30° C. for 72 h prior to analysis. For pellicle formation, 5 μl of the cells (around 5×10^5 CFU) was mixed within 4 ml of LBGM broth in 12-well plates (Costar). Plates were incubated at 30° C. for 24 h. Images were taken using a Zeiss Stemi 2000-C microscope with an axiocam ERc 5s camera.
# B. subtilis NCIB3610 = settings: LBGM, tested concentrations (5-100 mM MgCl2)
# Method: Initially, the cells were grown in shaking cultures over night at 23° C./150 rpm in LB to around 2×10^9 CFU per ml. […] The absorbance of the cultures at 600 nm was measured periodically for each culture for 9 hours. Each condition had 3 replicates, and the growth curve experiments were repeated twice.
# [4] = 50 mM or 100 mM MgCl2; B. subtilis culture, 5 hours, 37° C.
# Method: Cultures were incubated for 5 hours at 37° C. and 50 rpm and pH was measured every hour using pH strips.
# B. subtilis [5] = settings: at 50 mM and higher (50 and 80 mM tested)
# Excerpt: Further, the effect of magnesium ions on biofilm formation by B. subtilis within orange juice enriched medium, was examined.
# [6] = tested on: B. subtilis cells (YC161 with Pspank-gfp); settings: 25 mM MgCl2 and higher; 24 h in LBGM
# Method: For fluorescent microscopy, the strain YC161 that produced GFP constitutively, was used. The strain was first grown in shaking culture for 5 h 37° C./150 rpm in LB to around 1×10^8 CFU per ml. Next, 5 μl (around 5×10^5 CFU) of suspension from the generated culture was introduced into 4 ml of LBGM medium and incubated at 30° C. for 24 h statically. Afterwards, one milliliter of suspension from each sample was collected, mildly sonicated (10 sec/20% Amp/5) and centrifuged at 5000 rpm for 2 min. Next, the supernatant was removed and the pellet was re-suspended by pipetting. For microscopic observation, 34, from the samples were transferred onto a glass slide and visualized in a transmitted light microscope using Nomarski differential interference contrast (DIC), at ×40 magnification. A confocal laser scanning microscope was used to visualize GFP expression of strain YC161 using an Olympus IX81 confocal laser scanning microscope (Japan) equipped with 488 nm argon-ion and 543 nm helium neon lasers.
# Next, the effect of magnesium ions was visualized microscopically by testing bundling phenotype of fluorescently tagged B. subtilis cells (YC161 with Pspank-gfp), that produce GFP constitutively.
# [7] = tested on: Bacillus subtilis NCIB 3610
# Method: Additional experiments were conducted in order to evaluate the effect of magnesium ions on colony type biofilm formation by Bacillus subtilis on a solid surface. First a starter culture was prepared by growing bacteria from the strain Bacillus subtilis NCIB 3610 in an LB (Lysogeny broth) medium at 37° C., 150 rpm for 5 hours. […] Following these steps, 3 μl of the starter culture were spotted onto each of the solid biofilm promoting mediums. The samples were incubated at 30° C. for 72 hours prior to analysis. Images were taken using a Zeiss Stemi 2000-C microscope with an axiocam ERc 5s camera.
# B. subtilis [8] = tested on: B. subtilis
# Method: The effect of magnesium ions on biofilm formation within cow's milk was examined. A skilled artisan will appreciate that magnesium concentration within cow's milk typically ranges between 4-6 mM.
# B. subtilis [9] = settings: milk supplemented with additional 3 mM or 5 mM MgCl2
# Excerpt: The effect of increase in the concentration of magnesium ions was examined. […] The survival rate of bacteria following pasteurization was examined.
# tapA operon [10] = settings: increase of 1, 3 or 5 mM; particularly 5 mM MgCl2
# Method: The effect of increase in concentration of Mg′ within milk on the expression of tapA operon, which is one of the major operon for matrix production, was examined. For this purpose, B. subtilis were grown within cow's milk and cow's milk with an increase of 1 mM, 3 mM or 5 mM in concentration of magnesium ions. Further, transcriptional fusions of tapA promoter to the gene encoding cyan fluorescent protein (CFP) were utilized.
# [11] = Method: In order to examine milk clotting parameters, milk samples obtained from the dairy farm of the Agricultural Research Organization (ARO; Bet Dagan, Israel). […] Milk-clotting parameters such as rennet clotting time (RCT; min) and curd firmness (CF; V) after 90 min (CF-90) which are measured with an Optigraph instrument (Ysebaert, Frepillon, France) as described by Leitner et al. (2011). Results are presented in a graph. The point in which the curve is split into two curves, represents the rennet Clotting Time (RCT), which is the time between the addition of the clotting enzyme and the beginning of the coagulation process. The curd firmness is derived from the distance of the two curves in the graph 30 min after the addition of the clotting enzyme, or 90 minutes after the addition of the clotting enzyme.
# [12] = elevated concentrations of Mg2+ ions, pellicles in LBGM
compound,measurement,setting,value
[Cl-].[Na+] [NaCl],biofilm formation by B. subtilis,[1],none of those compounds could inhibit the biofilm formation in the same manner as MgCl2
same,expression of the eps operon,epsA-O operon,not downregulated in a similar manner
same,expression of the tapA operon,tapA operon [2],not downregulated in a similar manner
"O=S(=O)([O-])[O-].[Mg+2] [MgSO4, magnesium sulfate]",pellicle formation by B. subtilis,[1],inhibited the pellicle formation
"[Cl-].[Cl-].[Mg+2] [MgCl2, magnesium chloride]",colony type biofilm formation,[3],inhibited significantly
same,pellicle formation by B. subtilis,[1],inhibited notably pellicle formation by B. subtilis in a concentration dependent manner
same,bacterial growth,B. subtilis NCIB3610,did not affect bacterial growth
same,pH of the milk,[4],does not affect the pH of the milk
same,reduction in eps expression,epsA-O operon; [12],around 4 fold
same,colony type biofilm formation within orange juice enriched medium,B. subtilis [5],inhibits colony type biofilm formation
same,bundling ability of B. subtilis cells,[6],significant reduction in bundling ability
same,biofilm formation by B. subtilis on solid surface,[7]; magnesium ions 20 mM or 50 mM spread onto a solid surface,reduced biofilm formation
same,"biofilm formation onto pre-treated surface, stronger effect",[7]; solution of 20 mM MgCl2 as printed (second sentence),inhibitory effect is more significant
same,biofilm formation by B. subtilis onto pre-treated surface,"[7]; surface spread with solution of 20 mM MgCl2, 30° C., 72 h",inhibitory effect on biofilm formation
same,biofilm bundles within milk,B. subtilis [8]; 5 mM increase of MgCl2 concentration,biofilm bundles are almost totally diminished
same,biofilm formation by B. subtilis within milk,"B. subtilis [8]; cow's milk, magnesium increase of 1, 3 or 5 mM",inhibit biofilm formation by B. subtilis within milk
same,bacterial growth within milk,B. subtilis [8]; increased Mg ions concentration within milk,not significantly affected
same,biofilm formation by B. subtilis within milk,B. subtilis [8]; magnesium concentration increased by 1 mM,inhibitory effect of Mg2+ ions is notable
same,susceptibility of bacteria to heat pasteurization,B. subtilis [9],increase the susceptibility of bacteria to heat pasteurization
same,decrease in tapA expression,tapA operon [2]; [12],~14.5 fold
same,expression of the tapA operon within milk,tapA operon [10],reduced drastically
same,decrease in RCT,[11]; addition of 1 mM MgCl2,about 32%
same,increase in curd firmness,[11]; addition of 1 mM MgCl2,about 37%
same,decrease in RCT,[11]; addition of 3 mM MgCl2,~51%
same,increase in curd firmness,[11]; addition of 3 mM MgCl2,~54%
same,decrease in RCT,[11]; addition of 5 mM MgCl2,~62%
same,increase in curd firmness,[11]; addition of 5 mM MgCl2,~69%
same,decrease in RCT,[11]; addition of 7 mM MgCl2,~70%
same,increase in curd firmness,[11]; addition of 7 mM MgCl2,~82%
same,decrease in RCT,[11]; addition of 10 mM MgCl2,~84%
same,increase in curd firmness,[11]; addition of 10 mM MgCl2,~84%
same,decrease in RCT,[11]; addition of 15 mM MgCl2,~73%
same,increase in curd firmness,[11]; addition of 15 mM MgCl2,~90%
same,decrease in RCT,[11]; addition of 20 mM MgCl2,~74%
same,increase in curd firmness,[11]; addition of 20 mM MgCl2,~72%
[Ca+2].[Cl-].[Cl-] [CaCl2],biofilm formation by B. subtilis,[1],none of those compounds could inhibit the biofilm formation in the same manner as MgCl2
same,expression of the eps operon,epsA-O operon,not downregulated in a similar manner
same,expression of the tapA operon,tapA operon [2],not downregulated in a similar manner
